Source: patent US5391765A, “Cholesterol lowering/antioxidant nitroxides” (Bristol-Myers Squibb Company, priority 1993, dated 1995)

Assays:
[1] = Oxidation potential by cyclic voltammetry
[2] = system: normocholesterolemic chickens; assay: Serum lipids (total, LDL and HDL cholesterol) in normocholesterolemic male chickens; format: in vivo, chicken; conditions: orally dosed for 4 weeks at 4 mg/kg/day
Protocol: (§1) Hypocholesterolemic activity was evaluated for the synthetic analogues using γ-tocotrienol as a control in normocholesterolemic chickens. Newborn male chicks (6-10 for each group) were raised on a standard corn-soybean-based control diet for two weeks and then were switched to either control or experimental diets for four weeks. Drug treatment consisted of the addition of test compound to the corn-soybean-based. At the end of the feeding period, all the birds were fasted (about 36 hours) and refed (about 48 hours) to induce cholesterolgenic enzymes prior to sacrifice. The specific activity of HMG-CoA reductase, total serum cholesterol levels, HDL/LDL cholesterol pools, and triglyceride levels (data not shown) were examined (Table II).
(§2) Effects of Compound 3 on Lipid Parameters in Male Chickens
(§3) Orally dosed for 4-weeks at 4 mg/kg/day

HMG-CoA reductase [3] = assay: HMG-CoA reductase suppression (specific activity) in microsomal fraction of treated HepG2 cells; format: cell-based, human; conditions: 10 μM, 4 h incubation
Protocol: (§4) The human hepatoma HepG2 cell culture model was employed to compare the intrinsic activities of the synthetic analogues relative to the tocotrienols. HepG2 cells were incubated with the indicated compounds for 4 hours at 10 μM. Cholesterol synthesis was assayed by ^14 C-acetate incorporation over the final hour of incubation, and HMG-CoA reductase suppression (specific activity) was assayed in the microsomal fraction isolated from parallel cultures at the end of the 4 hour incubation. […] (Table I)

HepG2 cells = assay: Cholesterol biosynthesis, 14C-acetate incorporation in HepG2 cells; format: cell-based; conditions: Homo sapiens, 4 h incubation, 14C-acetate incorporation over final hour, read-out: Chol. Biosynthesis
Protocol: as §4

LDL [4] = conditions: oral vitamin E supplementation; cited from earlier work
HMG-CoA reductase [5] = assay: HMG-CoA reductase specific activity in normocholesterolemic male chickens; format: in vivo, chicken; conditions: orally dosed for 4 weeks at 4 mg/kg/day
Protocol: as §1, §2, §3

LDL [6] = assay: In vitro copper-mediated LDL oxidation, conjugated diene lag time extension; conditions: 10 μM incubated with rabbit plasma, isolated LDL, added Cu++; lag time ratio treated/control
LDL [7] = conditions: in vitro and in vivo; cited from earlier work
[8] = background statement; cited from earlier work

| Compound | Oxd. Potential [1] | HDL-C [2] | LDL-C [2] | HMGR Suppression (HMG-CoA reductase [3]) | activity at 10 µM (HepG2 cells) | further results |
| --- | --- | --- | --- | --- | --- | --- |
| Cc1c(C)c2c(c(C)c1O)CCC(C)(CCCC(C)CCCC(C)CCCC(C)C)O2 (stereo not drawn) [α-Tocopherol] | 0.81 Volts | – | – | – | – | – |
| CC(C)=CCC/C(C)=C/CC/C(C)=C/CCC1(C)CCc2cc(O)c(C)c(C)c2O1 (centres unmarked) [γ-Tocotrienol] | 0.94 Volts | 87.0 % of Control | 54.8 % of Control | 65% of Control | 75% | – |
| vitamin E | – | – | – | – | – | antioxidant effectiveness, variation between subjects (LDL [4]): varied considerably from subject to subject; oxidative resistance of LDL (LDL [4]): significantly enhanced |
| CC(C)=CCC/C(C)=C/CC/C(C)=C/CCSCC1=CC(C)(C)N([O])C1(C)C [Compound 3, 2,5-Dihydro-2,2,5,5-Tetramethyl-3-[[(4,8,12-Trimethyl-3(E),7(E),11-Tridecatrienyl)thio]methyl]-1H-Pyrrole N-Oxide Radical] | 0.65 Volts | 85.8 % of Control | 52.8 % of Control | 45% of Control | 5% | Tot.-C ([2]; total serum cholesterol): 72.0 % of Control; HMGR (HMG-CoA reductase [5]): 56.0 % of Control; LDL Oxd. Inhib. mean lag ratio (LDL [6]): 0.97 |
| CC(C)(Sc1cc(C(C)(C)C)c(O)c(C(C)(C)C)c1)Sc1cc(C(C)(C)C)c(O)c(C(C)(C)C)c1 [PROBUCOL, 4,4'-[(1-methylethylidene)bis(thio)]bis[2,6-bis(1,1-dimethylethyl)]] | 1.12 Volts | – | – | – | – | oxidative modification of LDL (LDL [7]): inhibits the oxidative modification of LDL both in vitro and in vivo; bioavailability [8]: suffers from bioavailability problems |
| CC(C)=CCC/C(C)=C/CC/C(C)=C/CCCOc1ccc2c(c1)C(C)=CC(C)(C)N2[O] [Compound 5, 1,2 -Dihydro-2,2,4-Trimethyl-6-[(5,9,13 -Trimethyl-4(E),8(E),12-tetradecatrienyl)oxy]Quinoline N-Oxide Radical] | – | – | – | – | 72% | – |
